The nature of data set [1]: Pharmacokinetics of noribogaine in healthy male volunteers (plasma and urine, LCMSMS). Particulars: for AUC0-216 / AUC0-∞ / Cmax / Tmax / t½: mean (SD).
Data set [2] in a line: Human pharmacokinetic study, single oral tablet, fasting healthy volunteers (serum levels). Type of data set: in vivo. The following applies: 3, 10, 30 or 60 mg once orally, healthy volunteers. As for the experimental part:
In double blind studies, fasting healthy volunteers (6 per cohort) were treated once orally with a tablet of noribogaine HCl. In escalating cohorts, the volunteers received 3 mg, 10 mg, 30 mg or 60 mg noribogaine.

The subject of another data set is Sprague-Dawley rat. In words: Single dose toxicity in rats. Type of data set: in vivo. As for the experimental part:
The objective of this study was to determine the toxicity and toxicokinetic profile of noribogaine HCl following a single oral (gavage) administration in the Sprague-Dawley rat. A single dose of 100, 300 and 800 mg/kg (achieved with doses of 400 mg/kg 3 h+/−30 min apart because of the limitations of maximum dose formulation concentration). Five male rats/group were used. […] Hypoactivity, vocalization, chewing movements, changes in respiration/posture, salivation, stimuli sensitivity, tremors, twitches and penile erection occurred prior to death. […] The NOAEL was determined to be 100 mg/kg.

A further data set relates to dogs. In words: Fourteen day repeat dose toxicity in dogs. The format is in vivo, dog. As for the experimental part: The objective of this study was to determine the toxicity profile of noribogaine HCl given following oral (gavage) administration to dogs for 14 days according to the following Table 3 below:
Noribogaine HCl was administered to groups of 4 male and 4 female dogs by single oral gavage daily for 14 days at doses of 0, 0.5, 1.0 and 5.0 mg/kg/day. An additional group of 4 male and 4 female dogs received either the vehicle control or 5.0 mg/kg/day for 14 days and were held for an additional 28 days after cessation of dosing to assess recovery from any potential drug-induced changes. The study was conducted under GLP guidelines and included comprehensive examinations of clinical signs, body weight, clinical pathology parameters, ophthalmologic examinations, ECG recordings and analyses of plasma for bioanalytical measurement of drug levels at appropriate intervals during the study. At the termination of the dosing phase and at the termination of the recovery phase, all dogs were subjected to a complete post-mortem examination including gross examination of major organs and histologic examination of an extensive list of tissues. Additional sections of brain were obtained from cerebrum, cerebellus, brain stem and spinal cord and examined histologically to evaluate potential effects on brain histopathology. In addition, these sections were examined with immunohistochemical stains for GFAP for evidence of gliosis and Calbindin for a more comprehensive examination of cerebellar Purkinje cells.

A further data set deals with Sprague-Dawley rats. In words: Fourteen day repeat dose toxicity in rats. Type of data set: in vivo, rat. How it is done: This study was conducted to evaluate the toxicity profile of noribogaine-HCl following oral (gavage) administration to the rat for 14 days following Table 2 below:
Male and female Sprague-Dawley rats, 10/sex/group, were administered 0, 25, 50 or 100 mg/kg noribogaine HCl daily by single oral gavage for 14 days. An additional 5 rats/sex/group in the 0 (control) and 100 mg/kg groups were retained for a 28 day recovery period during which no drug was administered. Six rats/sex/group (3 rats/sex controls) were similarly dosed and sampled on study days 1 and 14 for analysis of noribogaine-HCl concentrations in the blood.

The mark [3] stands for this setting: glucuronide in plasma after 30 mg noribogaine (n = 6).
[4] abbreviates: glucuronide in plasma after 60 mg noribogaine (n = 6).
Where [5] appears, read: plasma, 30 mg and 60 mg dose groups.

Where only a bound is given, the exact number is not on record here.

Turning to `CC[C@H]1C[C@@H]2C[C@H]3c4[nH]c5ccc(OC6OC(C(=O)O)C(O)C(O)C6O)cc5c4CCN(C2)[C@@H]13` (stereo partly shown) [Noribogaine glucuronide, noribogaine glucuronide], the “Proportion of Cmax and AUC relative to noribogaine” value in data set [1] (both dose groups (30 mg, 60 mg)) is given as 3-4%. Also, in data set [1] (setting [3]), the AUC0-216 is listed as 25.7 (9.1) ng · hr/ml, the “AUC0-∞” value is 25.8 (9.3) ng · hr/ml, the Cmax is 1.8 (0.6) ng/ml and the Tmax was 3.0 (0.6) hr. Besides, the t½ in data set [1] (setting [3]) is listed as 20.6 (4.9) hr. Besides, in data set [1] (setting [4]), the AUC0-216 is given as 65.0 (21.5) ng · hr/ml, the “AUC0-∞” value is listed as 67.1 (21.9) ng · hr/ml, the Cmax is 4.1 (1.2) ng/ml and the Tmax is on record as 3.8 (1.2) hr. In addition, in data set [1] (setting [4]), the t½ was 23.1 (3.0) hr. For the same compound, in data set [1] (setting [5]), the Mean half-life fell in the range of 21 to 23 h and the “Time of peak concentrations after noribogaine dosing” value was in the range of 3 to 4 h. Further, in data set [1] (plasma, after 30 mg and 60 mg noribogaine), the “Time by which detected in all subjects” value was no more than 0.75 h.
Consider `CC[C@@H]1C[C@H]2CC3c4[nH]c5ccc(O)cc5c4CCN(C2)C31.Cl` [noribogaine HCl], for which the “Clinically relevant adverse effects” value in data set [2] was “no clinically relevant adverse effects were observed”. In addition, the Treatment related signs entry in the data set with Sprague-Dawley rat (100 mg/kg) is “did not show any treatment related signs”. Moreover, the “Rats with clinical signs (hypoactivity, vocalization, salivation, stimuli sensitivity, loss of limb function, lying on cage floor) persisting until Day 2” value with Sprague-Dawley rat (300 mg/kg) is given as 3/5. Further, in the data set with Sprague-Dawley rat (800 mg/kg (two doses of 400 mg/kg 3 h apart), oral gavage, 5 male rats), the Mortality entry is listed as “Mortality occurred in all male rats”. In the data set with Sprague-Dawley rat (800 mg/kg group), the “Time of mortality after administration of the second dose” value lay within 2 to 3 h. The NOAEL in the data set with Sprague-Dawley rat (single oral gavage, male rats) amounted to 100 mg/kg; in the data set on dogs (14 days oral gavage, based on lacrimal gland changes at 5 mg/kg/day), 1 mg/kg/day; in the data set with Sprague-Dawley rats (14 days oral gavage, highest dose tested) it was 100 mg/kg. Also, the “Lacrimal gland changes (only target tissue)” value in the data set with dogs (5 mg/kg/day) was “slight to moderate atrophy and degeneration of the acinar cells”. Also, in the data set with dogs (5 mg/kg/day recovery group), the “Lacrimal gland change after 28 days recovery” value is “clear evidence of regeneration”. Also, the “Adverse effect in clinical observations, body weights, clinical pathology, ophthalmology, ECG, gross lesions” value in the data set with dogs (0.5, 1.0, 5.0 mg/kg/day oral gavage 14 days, dosing or recovery phase) is recorded as “No evidence of adverse effect”. Besides, the Body weight change with Sprague-Dawley rats (100 mg/kg, females) is on record as −2.6%; with Sprague-Dawley rats (100 mg/kg, males), −5.5%. Further, the Food consumption change in the data set with Sprague-Dawley rats (100 mg/kg, males and females) is reported as −4.7%. For the same compound, the “Test article-related effects on mortality, clinical signs, ophthalmoscopy, hematology, coagulation, clinical chemistry, urinalysis, gross necropsy, histopathology” value in the data set with Sprague-Dawley rats (25, 50 or 100 mg/kg daily oral gavage, 14 days) was “no test article-related effects”. The “Brain sections stained for GFAP or Calbindin” value in the data set with Sprague-Dawley rats (14 days oral gavage) was “No treatment-related differences”. Also, the Liver weight entry in the data set on Sprague-Dawley rats (mid- and high dose groups) is reported as “Minor increases in liver weight”.

In general, NOAEL refers to the highest dose or exposure tested at which no adverse effect was seen.

Values taken from US20150258107A1, “METHODS AND COMPOSITIONS FOR TREATING DEPRESSION” (DemeRx, Inc., priority 2014, published 2015).
